Measured values as given in patent publication US12121500B2, “Inhibitors of Bunyaviridae and uses thereof” (priority 2020, dated 2024).
Converted amounts (≈) assume the structure as drawn. Like-named read-outs stand apart in the source and are kept apart here.

Assays:
HepDES19 = experiment: Cytotoxicity in HepDES19 cells, MTS assay; conditions: read-out: CC50 HepDES19; HepDES19 cells, 3 days, MTS; * marks limit value
[1] = Quantitative cytotoxicity in Vero cells, crystal violet staining of EC50 plates; conditions: African green monkey
RVFV [2] = experiment: microbe, parasite or virus in culture; assay type: cell-based, Rift Valley Fever Virus
C. neoformans = experiment: Inhibition of C. neoformans growth, limiting dilution assay; assay type: cell-based, Cryptococcus neoformans; conditions: Cryptococcus neoformans; 48 hours at 35° C., YNB-02; read-out: C. neoformans (MIC80)
RVFV strain MP12 = experiment: microbe, parasite or virus in culture; assay type: cell-based, Rift Valley Fever Virus; conditions: for EC50: Rift Valley fever virus, Vero, read-out: Estimated EC50
[3] = Cytotoxicity in HepDES19 cells, MTS assay; conditions: human, HepDES19 cells (HepG2-derived hepatoblastoma cell line)
human ribonuclease H1 = molecular target: T1, human ribonuclease H1 (Homo sapiens, UniProt O60930); experiment: biochemical; assay type: biochemical
T1 construct: made in house; host or cells: E. coli
T1 sequence (O60930 1-286): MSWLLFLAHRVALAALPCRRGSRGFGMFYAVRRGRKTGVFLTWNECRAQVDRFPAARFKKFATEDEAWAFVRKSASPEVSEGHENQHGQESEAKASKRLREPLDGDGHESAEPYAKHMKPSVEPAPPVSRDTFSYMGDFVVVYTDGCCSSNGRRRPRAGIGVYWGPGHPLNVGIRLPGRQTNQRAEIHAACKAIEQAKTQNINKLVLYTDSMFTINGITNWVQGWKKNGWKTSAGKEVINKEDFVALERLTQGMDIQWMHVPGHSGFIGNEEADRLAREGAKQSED

in vitro [4] = conditions: human
RVFV [5] = experiment: microbe, parasite or virus in culture; assay type: cell-based, Rift Valley Fever Virus; conditions: Rift Valley fever virus, A549, 24 h
in vitro [6] = conditions: African green monkey
Escherichia coli = experiment: Inhibition of Escherichia coli growth, broth microdilution; assay type: cell-based; conditions: 16-24 hours, Mueller-Hinton broth, — = inactive; for MIC80: Escherichia coli, read-out: E. coli (MIC80)
Staphylococcus spp. = experiment: Inhibition of Staphylococcus spp. growth, broth microdilution; assay type: cell-based, S. saprophyticus or S. aureus; conditions: 16-24 hours, Mueller-Hinton broth, — = no measurable MIC80; for MIC80: Staphylococcus
[7] = Rift Valley fever virus, Vero, 24 h, read-out: RVFV (EC50, μM)

Compound | CC50 (HepDES19) [µM] | CC50 at 1 day [1] [µM] | EC50 (RVFV [2]; [7]) [µM] | MIC80 (C. neoformans) [µM] | EC50 (RVFV strain MP12) [µM] | CC50 at 3 days [3] [µM] | IC50 (human ribonuclease H1) [µM] | CC50 (in vitro [4]) [µM] | EC50 (RVFV [5]) [µM] | CC50 (in vitro [6]) [µM] | MIC80 (Escherichia coli) [µM] | MIC80 (Staphylococcus spp.) [µM] | IC50 (human ribonuclease H1; read-out: Human RNaseH1 (IC50)) [µM] | EC50 (RVFV [5]; read-out: EC50 in A549 cells) [µM] | EC50 (RVFV [2]; read-out: RVFV (EC50)) [µM] | E. coli (MIC80, μM) (Escherichia coli) | Human RNaseH1 (IC50, μM) (human ribonuclease H1) | Staphylococcus spp. (MIC80, μM) (Staphylococcus spp.) | activity against RVFV in the primary screen, in words (RVFV strain MP12)
Cc1cc(O)c(=O)c(O)cc1C(=O)c1cccc(Br)c1 [Compound 359] | 19.4 | 170 | 5.1 | 24 (≈ 8.04 µg/mL) | 4 |  |  |  |  |  |  |  |  |  |  |  |  |  | 
C/C(=N\c1ccc(C(F)(F)F)cc1)c1c(C)cc(=O)n(O)c1O [Compound 517] |  | > 120 | > 120 | 24 (≈ 7.83 µg/mL) | 13 | 91 | 135 | 71.8 | 95.8 | ≥ 120 |  |  |  |  |  |  |  |  | 
CC(C)c1ccc(O)c(=O)c(O)c1 [Compound 46, β-thujaplicinol] |  | > 250 | 13.8 | 8 (≈ 1.44 µg/mL) |  |  |  |  |  |  | 44 (≈ 7.93 µg/mL) | 20 (≈ 3.6 µg/mL) |  |  |  |  |  |  | 
Cc1cc(O)c(=O)c(O)cc1C(=O)c1cccs1 [Compound 308] |  | 217 | 0.54 | 11 (≈ 2.89 µg/mL) | 2 |  |  | 119 | 8.36 | 111 | 25 (≈ 6.56 µg/mL) | 44 (≈ 11.5 µg/mL) | 46 | 8.4 |  |  |  |  | 
C/C(=N\c1ccc(Cl)c(Cl)c1)c1c(C)cc(O)n(O)c1=O [Compound 670] | 69 | > 120 | 14 to 20 | 69 (≈ 22.6 µg/mL) | 10 |  |  | ≥ 120 | 15.3 | ≥ 120 |  |  | 356 |  | 14 |  |  |  | 
C/C(=N\c1cccc(Oc2ccccc2)c1)c1c(C)cc(=O)n(O)c1O [Compound 515] |  | > 120 | 24.3 | 11 (≈ 3.85 µg/mL) | 14 | 71.3 | 622 | 93.6 | ≥ 120 | ≥ 120 |  |  |  |  |  |  |  |  | 
Cc1cc(O)c(=O)c(O)cc1C(=O)c1ccccc1O [Compound 311] |  | > 250 | 11.6 | 15 (≈ 4.08 µg/mL) | 3 |  | 26 |  |  | 115 | 30 (≈ 8.17 µg/mL) | 67 (≈ 18.2 µg/mL) |  |  |  |  |  |  | 
CCCCSc1ccc(SCCCC)c(O)c(=O)c1O [Compound 694] | 1.8 | 22.1 | 3.7 | 2.3 (≈ 0.723 µg/mL) | 6 |  | > 500 |  |  | ≥ 120 |  | 9 (≈ 2.83 µg/mL) |  |  |  |  |  |  | 
CCCCCCSc1cccc(O)c(=O)c1O [Compound 840] |  | > 120 | 31.6 | 1 (≈ 0.254 µg/mL) | 14 | 21.5 | 73 | ≥ 120 | 15.4 | ≥ 120 |  |  |  |  |  |  |  |  | 
Cc1cc(O)c(=O)c(O)cc1C(=O)c1ccc(Br)cc1 [Compound 358] |  | > 250 | 9 | 11 (≈ 3.69 µg/mL) |  | 12.5 | 43 |  |  |  | 20 (≈ 6.7 µg/mL) |  |  |  |  |  |  |  | 
CC(=O)c1c(C)cc(O)c(=O)c(O)c1-c1ccccc1 [Compound 330] |  | > 300 | 9.5 | 4 (≈ 1.08 µg/mL) | 2 | 56.2 | 476 | ≥ 120 | 42.6 |  |  | 44 (≈ 11.9 µg/mL) |  |  |  |  |  |  | 
Cc1cc(O)c(=O)c(O)cc1C(=O)N1CCN(C(c2ccc(F)cc2)c2ccc(F)cc2)CC1 [Compound 1017] | 3.9 | 54.7 | 8 | 6 (≈ 2.8 µg/mL) | 3 |  |  |  |  | ≥ 120 |  |  |  |  |  |  |  |  | 
Cc1cc(O)c(=O)c(O)cc1C(=O)c1ccc(-c2ccncc2)cc1 [Compound 260] |  | > 250 | 31.6 | 50 (≈ 16.7 µg/mL) |  | 45 | 277 |  |  |  |  |  |  |  |  | poorly active or inactive | poorly active or inactive | poorly active or inactive | 
Cc1cc(O)c(=O)c(O)cc1C(=O)NCc1ccccc1 [Compound 388] |  | 239 | 9 | 11 (≈ 3.14 µg/mL) | 19 | 19.8 | 166 |  |  |  | 67 (≈ 19.1 µg/mL) | 67 (≈ 19.1 µg/mL) |  |  |  |  |  |  | active
Cc1cc(O)c(=O)c(O)cc1C(=O)Nc1ccccc1 [Compound 389] |  | > 250 | 8.8 | 3.5 (≈ 0.949 µg/mL) | 16 | 26.5 | 309 |  |  |  | 44 (≈ 11.9 µg/mL) | 44 (≈ 11.9 µg/mL) |  |  |  | good to moderate activity | nearly inactive | good to moderate activity | active
CC(=O)c1c(C)cc(O)c(=O)c(O)c1-c1cccc2ccccc12 [Compound 331] |  | 80.4 | 15.8 | 11 (≈ 3.52 µg/mL) | 2 | 36.6 | 448 | ≥ 120 | 17.7 |  |  | 67 (≈ 21.5 µg/mL) |  |  |  |  |  |  | 
Cc1cc(O)c(=O)c(O)cc1C(=O)NC(CCC(=O)OC(C)(C)C)C(=O)OC(C)(C)C (stereo not shown) [Compound 867] | 5.2 | > 120 | 8.7 | 9 (≈ 3.94 µg/mL) | 7 |  | > 500 | ≥ 120 | 33 | ≥ 120 |  |  |  |  |  |  |  |  | 
